Test results taken from patent US7642251B2, “Compounds for the treatment of hepatitis C” (Bristol-Myers Squibb Company, priority 2007, dated 2010).

Legend:
[1] = molecular target: T1, HCV NS5B (Hepatitis C virus genotype 1b, UniProt Q9WMX2); experiment: Modified HCV NS5B RdRp enzyme assay (preincubation protocol); type: biochemical; details: preincubation protocol; read-out: IC50
T1 construct: The cDNA encoding the NS5B protein of HCV, genotype 1b; made in house; host or cells: E. coli BL21(DE3)
T1 sequence (Q9WMX2 2420-2992): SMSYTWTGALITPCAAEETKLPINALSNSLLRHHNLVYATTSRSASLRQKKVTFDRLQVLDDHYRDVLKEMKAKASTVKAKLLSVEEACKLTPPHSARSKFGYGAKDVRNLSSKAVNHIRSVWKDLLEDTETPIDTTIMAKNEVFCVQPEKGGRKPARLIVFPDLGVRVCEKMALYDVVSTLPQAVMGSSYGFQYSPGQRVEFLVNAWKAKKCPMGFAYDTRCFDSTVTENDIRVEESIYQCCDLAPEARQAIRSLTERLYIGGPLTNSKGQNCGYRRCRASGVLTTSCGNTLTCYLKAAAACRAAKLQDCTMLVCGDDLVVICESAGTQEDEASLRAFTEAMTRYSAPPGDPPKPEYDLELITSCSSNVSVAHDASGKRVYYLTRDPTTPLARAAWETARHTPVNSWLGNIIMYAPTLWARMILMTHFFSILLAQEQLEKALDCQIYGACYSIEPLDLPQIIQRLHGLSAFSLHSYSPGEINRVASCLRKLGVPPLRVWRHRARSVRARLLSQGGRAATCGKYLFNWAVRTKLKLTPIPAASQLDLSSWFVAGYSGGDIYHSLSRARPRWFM
Procedure: HCV NS5B RdRp cloning, expression, and purification. The cDNA encoding the NS5B protein of HCV, genotype 1b, was cloned into the pET21a expression vector. The protein was expressed with an 18 amino acid C-terminal truncation to enhance the solubility. The E. coli competent cell line BL21(DE3) was used for expression of the protein. Cultures were grown at 37° C. for ˜4 hours until the cultures reached an optical density of 2.0 at 600 nm. The cultures were cooled to 20° C. and induced with 1 mM IPTG. Fresh ampicillin was added to a final concentration of 50 μg/ml and the cells were grown overnight at 20° C.
Cell pellets (3 L) were lysed for purification to yield 15-24 mgs of purified NS5B. The lysis buffer consisted of 20 mM Tris-HCl, pH 7.4, 500 mM NaCl, 0.5% triton X-100, 1 mM DTT, 1 mM EDTA, 20% glycerol, 0.5 mg/ml lysozyme, 10 mM MgCl2, 15 ug/ml deoxyribonuclease I, and Complete™ protease inhibitor tablets (Roche). After addition of the lysis buffer, frozen cell pellets were resuspended using a tissue homogenizer. To reduce the viscosity of the sample, aliquots of the lysate were sonicated on ice using a microtip attached to a Branson sonicator. The sonicated lysate was centrifuged at 100,000×g for 1 hr at 4° C. and filtered through a 0.2 μm filter unit (Corning).
The protein was purified using three sequential chromatography steps: Heparin sepharose CL-6B, polyU sepharose 4B, and Hitrap SP sepharose (Pharmacia). The chromatography buffers were identical to the lysis buffer but contained no lysozyme, deoxyribonuclease I, MgCl2 or protease inhibitor and the NaCl concentration of the buffer was adjusted according to the requirements for charging the protein onto the column. Each column was eluted with a NaCl gradient which varied in length from 5-50 column volumes depending on the column type. After the final chromatography step, the resulting purity of the enzyme is >90% based on SDS-PAGE analysis. The enzyme was aliquoted and stored at −80° C.
Standard HCV NS5B RdRp enzyme assay. HCV RdRp genotype 1b assays were run in a final volume of 60 μl in 96 well plates (Costar 3912). The assay buffer is composed of 20 mM Hepes, pH 7.5, 2.5 mM KCl, 2.5 mM MgCl2, 1 mM DTT, 1.6 U RNAse inhibitor (Promega N2515), 0.1 mg/ml BSA (Promega R3961), and 2% glycerol. All compounds were serially diluted (3-fold) in DMSO and diluted further in water such that the final concentration of DMSO in the assay was 2%. HCV RdRp genotype 1b enzyme was used at a final concentration of 28 nM. A polyA template was used at 6 nM, and a biotinylated oligo-dT12 primer was used at 180 nM final concentration. Template was obtained commercially (Amersham 27-4110). Biotinylated primer was prepared by Sigma Genosys. 3H-UTP was used at 0.6 μCi (0.29 μM total UTP). Reactions were initiated by the addition of enzyme, incubated at 30° C. for 60 min, and stopped by adding 25 μl of 50 mM EDTA containing SPA beads (4 μg/μl, Amersham RPNQ 0007). Plates were read on a Packard Top Count NXT after >1 hr incubation at room temperature.
Modified HCV NS5B RdRp enzyme assay. A modified enzyme assay was performed essentially as described for the standard enzyme assay except for the following: The biotinylated oligo dT12 primer was precaptured on streptavidin-coated SPA beads by mixing primer and beads in assay buffer and incubating at room temperature for one hour. Unbound primer was removed after centrifugation. The primer-bound beads were resuspended in 20 mM Hepes buffer, pH 7.5 and used in the assay at final concentrations of 20 nM primer and 0.67 μg/μl beads. Order of addition in the assay: enzyme (14 nM) was added to diluted compound followed by the addition of a mixture of template (0.2 nM), 3H-UTP (0.6 μCi, 0.29 μM), and primer-bound beads, to initiate the reaction; concentrations given are final. Reactions were allowed to proceed for 4 hours at 30° C.
IC50 values for compounds were determined using seven different [I]. […]

[2] = system: HCV replicon cells; experiment: HCV replicon FRET assay; type: cell-based; details: Hepatitis C virus; FRET assay; read-out: EC50
Source text: FRET Assay Preparation. To perform the HCV FRET screening assay, 96-well cell culture plates were used. The FRET peptide (Anaspec, Inc.) (Taliani et al., Anal. Biochem. 1996, 240, 60-67) contains a fluorescence donor, EDANS, near one end of the peptide and an acceptor, DABCYL, near the other end. The fluorescence of the peptide is quenched by […] resonance energy transfer (RET) between the donor and the acceptor, but as the NS3 protease cleaves the peptide the products are released from RET quenching and the fluorescence of the donor becomes apparent. The assay reagent was made as follows: 5× cell Luciferase cell culture lysis reagent from Promega (#E153A) diluted to 1× with dH2O, NaCl added to 150 mM final, the FRET peptide diluted to 20 μM final from a 2 mM stock.
To prepare plates, HCV replicon cells, with or without a Renilla luciferase reporter gene, were trypsinized and placed into each well of a 96-well plate with titrated test compounds added in columns 3 through 12; columns 1 and 2 contained a control compound (HCV protease inhibitor), and the bottom row contained cells without compound. The plates were then placed in a CO2 incubator at 37° C.
Assays. Subsequent to addition of the test compounds described above (FRET Assay Preparation), at various times the plate was removed and Alamar blue solution (Trek Diagnostics, #00-100) was added per well as a measure of cellular toxicity. After reading in a Cytoflour 4000 instrument (PE Biosystems), plates were rinsed with PBS and then used for FRET assay by the addition of 30 ul of the FRET peptide assay reagent described above (FRET Assay Preparation) per well. The plate was then placed into the Cytoflour 4000 instrument which had been set to 340 excite/490 emission, automatic mode for 20 cycles and the plate read in a kinetic mode. Typically, the signal to noise using an endpoint analysis after the reads was at least three-fold. Alternatively, after Alamar blue reading, plates were rinsed with PBS, 50 ul of DMEM (high glucose) without phenol red was added and plates were then used for luciferase assay using the Promega Dual-Glo Luciferase Assay System.
Compound analysis was determined by quantification of the relative HCV replicon inhibition and the relative cytotoxicity values. To calculate cytoxicity values, the average Alamar Blue fluorescence signals from the control wells were set as 100% non-toxic. The individual signals in each of the compound test wells were then divided by the average control signal and multiplied by 100% to determine […]. To calculate the HCV replicon inhibition values, an average background value was obtained from the two wells containing the highest amount of HCV protease inhibitor at the end of the assay period. These numbers were similar to those obtained from naïve Huh-7 cells.
The background numbers were then subtracted from the average signal obtained from the control wells and this number was used as 100% activity. The individual signals in each of the compound test wells were then divided by the averaged control values after background subtraction and multiplied by 100% to determine percent activity. EC50 values for a protease inhibitor titration were calculated as the concentration which caused a 50% reduction in FRET or luciferase activity. The two numbers generated for the compound plate, percent cytoxicity and percent activity were used to determine compounds of interest for further analysis.

SMILES | IC50 [1] | EC50 [2]
COc1ccc2c(c1)C=C(c1ccccc1S(=O)(=O)N(C)CCN(C)C)Cn1c-2c(C2CCCCC2)c2ccc(C(=O)NS(=O)(=O)C(C)C)cc21 | 0.00458 to 0.5 µM | 0.00458 to 0.5 µM
COc1ccc2c(c1)C=C(c1ccccc1CN1CCOCC1)Cn1c-2c(C2CCCCC2)c2ccc(C(=O)NS(=O)(=O)C(C)C)cc21 | 0.00458 to 0.5 µM | 0.00458 to 0.5 µM
COc1ccc2c(c1)C=C(c1cccc(OCCN(C)C)c1)Cn1c-2c(C2CCCCC2)c2ccc(C(=O)NS(=O)(=O)C(C)C)cc21 | 0.00458 to 0.5 µM | > 0.5 µM
